Reference: US9631001B2, “Peptide antagonists of the vasopressin-2 receptor” (COMMISSARIAT A L'ENERGIE ATOMIQUE ET AUX ENERGIES …, priority 2012, dated 2017)
Bridges are numbered along the chain shown (N, C = ends). Where no end group is shown, it is not given here.

Tests used:
[1] = biological target: V2R (Homo sapiens, UniProt P30518); details: vaptans, background; cited from earlier work
[2] = biological target: vasopressin V2 receptor subtype (V2R) (Homo sapiens, UniProt P30518); assay: 3H-AVP competition binding on V2R membranes; details: for Ki: Ki (nM ± SEM), binding affinity of the ligands for V2R, 3H-AVP competition, mean ± SEM; for V2R inhibition, 3H-AVP binding (FIG. 15): compared with U-Da2a
Description: Reaction mixtures contained 50 mM Tris-HCl, pH 7.4, 10 mM MgCl2 and 1 g/L BSA in a final volume of 100 μL. Plates were incubated for 3 h at room temperature. Binding reactions were stopped by filtration through a GF/C filter pre-soaked in 0.5% polyethyleneimine on a cell harvester ([sequence], Courtaboeuf, France) and plates were dried. […] A one-site inhibition mass action curve was fitted to inhibition binding data using Kaleidagraph (SYNERGY SOFTWARE, Reading, Pa., USA).

For `Cc1nc2c([nH]1)-c1ccccc1N(C(=O)c1ccc(NC(=O)c3ccccc3-c3ccccc3)cc1)CC2` [Conivaptan], the V2/V1a selectivity index [1] is given as 0.15.

For `CCOc1ccc2c(c1)C1(CCC(OCCN3CCOCC3)CC1)C(=O)N2S(=O)(=O)c1ccc(C(=O)NC(C)(C)C)cc1OC` (stereo not shown) [Satavaptan], the V2/V1a selectivity index [1] is listed as 112.

“CNLPVKPGPCNGFFSAFYYSQKTNKCHSFTYGGCKGNANRFSTIEKCRRTCVG (disulfide 1-51, 10-34, 26-47) [U-Da2a-delta4 N-ter]” gave a Ki [2] of 1.57 ± 1.2 nM.

For “DTx-E-R55 (LQHRTFCKLPAEPGPCKASIPAFYYNWAAKKCQLFHYGGCKGNANRFSTIEKCRRACVG; listed as Dendroaspis polylepis) [reference compound]”, the “V2R inhibition, 3H-AVP binding (FIG. 15)” value [2] was “not able to block V2R”.

In the case of “Dendrotoxin-K [DTx-K, reference compound]”, the “V2R inhibition, 3H-AVP binding (FIG. 15)” value [2] is reported as “no V2R inhibition”.

For “RPKFCNLPVKPGPCNGFFSAFYYSQKTNKCHSFTYGGCKGNANRFSTIEKCRRTCVG (disulfide 5-55, 14-38, 30-51) [U-Da2a-S3K]”, the Ki [2] was 1.29 ± 0.34 nM.

Work on “SFCNLPVKPGPCNGFFSAFYYSQKTNKCHSFTYGGCKGNANRFSTIEKCRRTC (disulfide 3-53, 12-36, 28-49) [U-Da2a-delta2 N-ter/delta2 C-ter]” yielded a Ki [2] of 3.23 ± 2.31 nM.
